This is an account of results in patent US20080317807A1, “STRONTIUM FORTIFIED CALCIUM NANO-AND MICROPARTICLE COMPOSITIONS AND METHODS OF MAKING AND USING THEREOF” (The University of Hong Kong, priority 2007, published 2008).

Assay [1] concerns osteoporotic mice model induced by parathyroid hormone. Conditions: cited from earlier work.
Assay [2] concerns fibroblast and pre-osteoblastic enriched cell populations. Conditions: cited from earlier work.
Assay [3] deals with osteoblast differentiation. As to the kind of experiment: Osteoblast differentiation by ALP staining and ALP quantification. The format is cell-based. From the text: It was also observed that the administration of strontium promoted osteoblast differentiation. This was confirmed via alkaline phosphatase (ALP) staining and ALP quantification.
In the next assay the test system is mature osteoblast. Conditions: Strontium concentrations of 10^−3M or higher; cited from earlier work.
In a further assay the test system is rats. The following applies: cited from earlier work.

`N#Cc1c(N(CC(=O)[O-])CC(=O)[O-])sc(C(=O)[O-])c1CC(=O)[O-].[Sr+2].[Sr+2]` [strontium ranelate]: the Bone resorption entry in assay [1] is reported as “inhibited bone resorption”. The “Increase of DNA synthesis” value in assay [2] is recorded as “three- to four”.

With `[Sr+2]` [strontium], in assay [3], the “Matrix mineralization of osteoprogenitors” value is reported as “increased matrix mineralization”. In assay [3] (particularly after 14 days), the “Osteoblast differentiation (ALP staining and quantification)” value is given as “increased osteoblast differentiation”. Also, in the assay with mature osteoblast, the “Increase of collagen and non-collagenic protein synthesis” value is recorded as 34%. Also, the “Increase of alkaline phosphatase activities, female rats” value with rats (female rats) is recorded as 56%. Further, the “Increase of alkaline phosphatase activities, male rats” value in the assay on rats (male rats) is reported as 53%. In addition, the “Plasma IGF-1, males” value in the assay on rats (males, after 104 weeks of treatment) is reported as “Significant increase”.
